From publication PMC2733134, “A novel hydroxyfuroic acid compound as an insulin receptor activator - structure and activity relationship of a prenylindole moiety to insulin receptor activation” (Journal of Biomedical Science, 2009)
Where “and” joins values, the source holds several entries; their conditions need not be identical. Equal values may be shown once. Read-outs that look alike come from different tables or passages of the source.

Assays:
insulin receptor = conditions: cited from earlier work
human insulin receptor = molecular target: T1, human insulin receptor (Homo sapiens, UniProt P06213); assay: Insulin receptor activation assay (CHO cells overexpressing human insulin receptor, Ab-3 capture, tyrosine kinase activity); assay type: cell-based; conditions: for Study 1, cpm, phosphoryl incorporation by tyrosine kinase activities / Study 2, cpm, phosphoryl incorporation by tyrosine kinase activities: hydroxyfuroic acid compounds 100 μM, insulin 10 nM; for % activation, tyrosine kinase activity compared to 10 nM insulin stimulation (Study 2) / % activation, tyrosine kinase activity compared to 10 nM insulin stimulation (Study 1): test concentration 100 μM
T1 construct: expressed in transfected cells; host or cells: CHO cells (gift of Dr. Richard Roth, Stanford University)
Description: The insulin receptor activation assay is based on the assay described by Zhang et al. with minor modifications. Briefly, approximately 100,000 CHO cells overexpressing human recombinant insulin receptor were suspended in 100 μl of Ham's F-12 medium containing 10% fetal bovine serum (FBS) and seeded into each well of a 96-well plate. Cells were incubated at 37°C with 5% CO2 aeration overnight. CHO cells were rinsed with phosphate buffered saline (PBS) 3 times and starved in serum free Ham's F-12 medium for 2 hours before being stimulated with desired concentration of insulin or test compound for 20 minutes. Test compounds were predissolved in DMSO as 100× stocks and serially diluted when necessary. Stimulated CHO cells were then rinsed 3 times with PBS and lysed in 60 μl of lysis buffer. Fifty μl of the lysate was transferred to a well on a Flexible Assay Plate that was precoated with Ab-3 antibody recognizing the β-subunit of insulin receptor. The well was then rinsed 3 times with Tris buffered saline (TBS) containing 0.1% Tween20 and thrown dried by hand before 10 μl of tyrosine kinase reaction mixture (50 mM HEPES, pH7.4, 5 mM MgCl2, 5 mM MnCl2, 1 mg/mL polyGlu/Tyr and 250,000 cpm γ-P^33 ATP/well) was added. The reaction was carried out at 25°C for 40 minutes and terminated by adding 50 μl ice cold 100 mM phosphoric acid. Fifty μl of the stopped reaction mixture was then transferred to an inch square P81 paper. The P81 paper was air dried and then rinsed in Millipore water 5 times to remove leftover radioactive ATP and product ADP. Five mL of scintillation cocktail was added to the paper before the count was read in a liquid scintillation counter.
(§1) The 50% effective or inhibition concentrations were determined with the standard curve analysis of SigmaPlot 8.02. The nonlinear regression equation is y = min+(max-min)/(1+(x/EC50)^Hill Slope) where y is the observed responses; x is the dose concentrations; max and min are approximated by the program automatically during the calculation.
To validate the insulin receptor activation assay, dose response curve of bovine insulin was determined. […] In subsequent experiments, we routinely included 1, 10, and 100 nM insulin as standard reference. […] For simplicity, the efficacies of hydroxyfuroic acid compounds were expressed as percentage of activities comparing to the response provided by 10 nM insulin stimulation in parallel. To distinguish human insulin receptor kinase from other tyrosine kinases in CHO cells, Ab-3, a human insulin receptor β-subunit specific monoclonal antibody, was used to absorb insulin receptor from the CHO cell lysate, so the radioactivity catalyzed by captured tyrosine kinase is attributable to insulin receptor tyrosine kinase activity.

in vitro = assay type: cell-based; conditions: Chinese hamster, LC50, cytotoxicity
Description: (§2) Approximately 5,000 CHO cells suspended in 100 μl D-MEM containing 10% FBS were seeded in each well of a 96-well plate overnight before the cytotoxicity assay. Test compounds were predissolved as 10× solution in 10% DMSO, 10% ethanol, 80% PBS and 10 μl of this 10× test compound solution were added to each well. After 24 hours incubation, medium containing test compound was removed by aspiration and 3 rinses of PBS. One hundred μl of serum medium was replenished before 20 μl methylthiazolyldiphenyl-tetrazolium bromide (MTT, 2.5 mg/mL) and 1 μl phenazine methosulfate (PMS, 50 μM) was added to each well before a 3-hour further incubation at 37°C. Optical density at 450 nm was measured with an ELISA reader. LC50 is defined as the concentration of compound that causes 50% drop of cell viability in this test.

EGF receptor (ErbB1) [1] = system: EGF receptor (ErbB1); parameters: method as in Zhang et al. [19]; conditions: ref Zhang et al. [19]; cited from earlier work
db/db mice = system: db/db mice; parameters: method as in PMID 10320380, PMID 11237209; conditions: cited from earlier work
FGF receptor 3 = molecular target: T2, FGF receptor 3 (Homo sapiens, UniProt P22607); assay: FGF receptor 3 tyrosine kinase activity assay; assay type: biochemical; conditions: Fig. 6C
T2 construct: purchased R&D systems (Minneapolis, MN)
Description: The reaction condition of FGF receptor 3 was similar to that of EGF receptor except 0.1 μg/μl polyGlu/Tyr substrate and 0.05 ng/μl FGF-receptor 3 were used instead. All other conditions or processes were the same. The FGF receptor 3 tyrosine kinase reaction was carried out with subsaturating concentrations of substrates for better sensitivity to activator or inhibitor influence.
as §1

CHO cells = assay: in vitro; assay type: cell-based; conditions: Chinese hamster, 24 h
Description: as §2

[2] = molecular target: T3, Recombinant human IGF-1 receptor (Homo sapiens, UniProt P08069); assay: IGF-1 receptor tyrosine kinase activity assay; assay type: biochemical; conditions: mid μM of compound, Fig. 6A
T3 construct: purchased R&D systems (Minneapolis, MN)
Description: The reaction was carried out at pH7.0 in the presence of 50 mM HEPES, 5 mM MgCl2, 0.01 μg/μl polyGlu/Tyr substrate, 5 mM DTT, 250,000 cpm radioactive ATP, and 0.4 ng/μl IGF-1R tyrosine kinase with a final volume of 100 μl at 37°C for 10 minutes. The IGF-1 receptor tyrosine kinase reaction was carried out with subsaturating concentrations of substrates for better sensitivity to activator or inhibitor influence. Test compound D-410639 was predissolved in DMSO as 20× stock. The reaction was stopped by the addition of 100 μl of 25 mM EDTA (pH8), and 85 μl of the stopped reaction mix was blotted on an inch square P81 paper. P81 paper was air dried before rinsed 5 times in Millipore water to remove non-protein phosphorus. Five mL scintillation cocktail was added to the P81 paper before the counts were read with a liquid scintillation counter.
as §1

EGF receptor (ErbB1) [3] = molecular target: T4, EGF receptor (ErbB1) (Homo sapiens, UniProt P00533); assay: EGF receptor (ErbB1) tyrosine kinase activity assay; assay type: biochemical; conditions: Fig. 6B
T4 construct: purchased R&D systems (Minneapolis, MN)
Description: The reaction condition of EGF receptor (ErbB1) was similar to that of IGF-1 receptor reaction except 0.04 μg/μl polyGlu/Tyr substrate and 0.3 ng/μl EGF receptor (ErbB1) were used, and the reaction time was 15 minutes. All other conditions or processes were the same. The EGF receptor tyrosine kinase reaction was carried out with subsaturating concentrations of substrates for better sensitivity to activator or inhibitor influence.
as §1

[4] = read-out: EC50, insulin receptor activation, reported previously
[5] = side by side comparison, Fig. 3, read-out: EC50, insulin receptor tyrosine kinase activation

T4 sequence (P00533 25-1210): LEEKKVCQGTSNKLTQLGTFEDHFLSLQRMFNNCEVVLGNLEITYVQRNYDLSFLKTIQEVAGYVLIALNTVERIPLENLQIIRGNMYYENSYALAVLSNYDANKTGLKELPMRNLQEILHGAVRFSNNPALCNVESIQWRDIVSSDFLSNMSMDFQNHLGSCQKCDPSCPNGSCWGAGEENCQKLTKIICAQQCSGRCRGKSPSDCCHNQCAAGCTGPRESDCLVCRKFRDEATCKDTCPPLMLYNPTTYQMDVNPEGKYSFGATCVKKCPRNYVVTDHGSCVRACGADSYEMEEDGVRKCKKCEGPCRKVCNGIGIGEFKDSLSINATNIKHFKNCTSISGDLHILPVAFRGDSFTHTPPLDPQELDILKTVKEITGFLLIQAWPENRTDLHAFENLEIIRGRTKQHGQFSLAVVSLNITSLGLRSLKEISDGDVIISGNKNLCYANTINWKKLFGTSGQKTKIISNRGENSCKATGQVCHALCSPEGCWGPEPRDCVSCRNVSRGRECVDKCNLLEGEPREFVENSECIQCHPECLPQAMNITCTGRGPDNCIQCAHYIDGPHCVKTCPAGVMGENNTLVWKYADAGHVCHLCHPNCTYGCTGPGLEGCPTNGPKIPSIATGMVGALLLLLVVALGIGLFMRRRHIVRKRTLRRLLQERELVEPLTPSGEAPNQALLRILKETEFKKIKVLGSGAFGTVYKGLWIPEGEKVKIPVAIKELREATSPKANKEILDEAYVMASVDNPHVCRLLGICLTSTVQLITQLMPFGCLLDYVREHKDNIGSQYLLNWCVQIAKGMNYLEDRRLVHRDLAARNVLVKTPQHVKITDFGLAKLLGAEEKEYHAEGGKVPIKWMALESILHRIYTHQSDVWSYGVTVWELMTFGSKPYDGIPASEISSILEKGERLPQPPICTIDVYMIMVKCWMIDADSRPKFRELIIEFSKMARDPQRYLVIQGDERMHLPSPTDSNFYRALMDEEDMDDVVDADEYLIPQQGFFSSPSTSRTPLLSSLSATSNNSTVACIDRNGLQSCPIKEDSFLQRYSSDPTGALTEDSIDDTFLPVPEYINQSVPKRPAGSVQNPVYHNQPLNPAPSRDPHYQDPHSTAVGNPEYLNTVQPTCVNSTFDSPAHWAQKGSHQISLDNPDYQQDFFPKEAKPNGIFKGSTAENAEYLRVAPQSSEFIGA
T2 sequence (P22607 23-806): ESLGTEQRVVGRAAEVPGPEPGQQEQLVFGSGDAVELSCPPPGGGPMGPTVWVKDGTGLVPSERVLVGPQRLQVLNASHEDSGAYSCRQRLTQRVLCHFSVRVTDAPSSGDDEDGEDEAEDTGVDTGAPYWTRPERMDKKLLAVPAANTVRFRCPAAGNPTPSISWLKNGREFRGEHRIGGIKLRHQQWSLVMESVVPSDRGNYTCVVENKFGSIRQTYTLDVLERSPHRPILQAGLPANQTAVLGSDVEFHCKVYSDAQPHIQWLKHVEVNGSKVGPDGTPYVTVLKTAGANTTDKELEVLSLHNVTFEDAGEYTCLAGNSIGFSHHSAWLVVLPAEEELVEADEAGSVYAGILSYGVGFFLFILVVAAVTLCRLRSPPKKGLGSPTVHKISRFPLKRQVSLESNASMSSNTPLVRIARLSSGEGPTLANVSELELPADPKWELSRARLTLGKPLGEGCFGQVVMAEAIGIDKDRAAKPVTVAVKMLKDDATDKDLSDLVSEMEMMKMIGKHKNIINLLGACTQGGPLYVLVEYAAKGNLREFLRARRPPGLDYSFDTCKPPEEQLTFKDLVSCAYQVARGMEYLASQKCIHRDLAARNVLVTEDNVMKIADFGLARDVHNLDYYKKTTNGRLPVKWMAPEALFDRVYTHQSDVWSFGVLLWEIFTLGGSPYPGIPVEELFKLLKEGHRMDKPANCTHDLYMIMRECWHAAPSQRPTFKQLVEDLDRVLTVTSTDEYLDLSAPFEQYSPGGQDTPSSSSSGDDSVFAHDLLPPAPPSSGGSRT
T3 sequence (P08069 31-1367): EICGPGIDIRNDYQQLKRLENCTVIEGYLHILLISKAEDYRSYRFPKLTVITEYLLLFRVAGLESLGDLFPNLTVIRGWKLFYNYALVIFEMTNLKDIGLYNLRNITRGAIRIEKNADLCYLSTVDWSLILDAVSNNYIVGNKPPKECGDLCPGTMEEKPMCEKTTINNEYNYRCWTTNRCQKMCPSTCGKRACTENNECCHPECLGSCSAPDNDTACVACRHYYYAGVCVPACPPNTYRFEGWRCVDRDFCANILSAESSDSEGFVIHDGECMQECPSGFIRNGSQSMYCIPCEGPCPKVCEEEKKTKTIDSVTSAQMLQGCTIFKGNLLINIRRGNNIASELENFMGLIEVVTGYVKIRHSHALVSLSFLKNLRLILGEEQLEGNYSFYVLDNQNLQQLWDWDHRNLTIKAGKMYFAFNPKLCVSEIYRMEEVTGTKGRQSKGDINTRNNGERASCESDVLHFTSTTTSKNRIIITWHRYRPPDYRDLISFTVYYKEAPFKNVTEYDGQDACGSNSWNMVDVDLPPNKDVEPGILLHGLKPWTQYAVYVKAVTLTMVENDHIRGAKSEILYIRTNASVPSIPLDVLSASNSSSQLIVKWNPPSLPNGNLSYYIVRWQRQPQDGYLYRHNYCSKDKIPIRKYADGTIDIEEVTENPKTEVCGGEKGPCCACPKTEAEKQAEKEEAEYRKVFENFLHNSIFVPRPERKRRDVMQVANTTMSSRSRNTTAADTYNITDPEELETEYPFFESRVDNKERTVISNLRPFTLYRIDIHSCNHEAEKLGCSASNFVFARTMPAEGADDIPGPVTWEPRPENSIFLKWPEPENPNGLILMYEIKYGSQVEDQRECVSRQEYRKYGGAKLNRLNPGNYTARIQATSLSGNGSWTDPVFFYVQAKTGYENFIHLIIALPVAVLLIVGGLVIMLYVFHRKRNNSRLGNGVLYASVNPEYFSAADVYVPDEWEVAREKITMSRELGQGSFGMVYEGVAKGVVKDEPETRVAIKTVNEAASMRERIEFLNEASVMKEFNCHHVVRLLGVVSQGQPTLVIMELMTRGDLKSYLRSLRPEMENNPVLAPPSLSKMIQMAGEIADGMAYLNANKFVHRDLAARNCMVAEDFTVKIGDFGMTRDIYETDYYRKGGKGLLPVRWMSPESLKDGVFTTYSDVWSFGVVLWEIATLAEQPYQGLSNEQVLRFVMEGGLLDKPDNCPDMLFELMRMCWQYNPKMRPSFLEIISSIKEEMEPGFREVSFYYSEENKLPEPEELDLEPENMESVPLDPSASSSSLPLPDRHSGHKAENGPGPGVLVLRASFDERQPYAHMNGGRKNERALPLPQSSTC

## bovine insulin: bovine insulin, standard reference of the insulin receptor activation assay
Insulin receptor; ref Liu et al. [21], read-out: EC50 of insulin, reported
  EC50: 0.001 µM
Human insulin receptor
  Study 1, cpm, phosphoryl incorporation by tyrosine kinase activities: 6250 cpm
  Study 2, cpm, phosphoryl incorporation by tyrosine kinase activities: 1632.5 cpm
Human insulin receptor; assay validation dose response curve, read-out: EC50 of bovine insulin, insulin receptor activation
  EC50: ~0.0051 µM

## O=C(O)c1oc(C(=O)c2c[nH]c3c(CCCC(CO)CO)cccc23)c(O)c1-c1c[nH]c2ccccc12 [Compound D-410642]
Human insulin receptor
  Study 2, cpm, phosphoryl incorporation by tyrosine kinase activities: 659.3 cpm
  % activation, tyrosine kinase activity compared to 10 nM insulin stimulation (Study 2): 40.4%

## O=C(O)CCc1cccc2c(C(=O)c3oc(C(=O)O)c(-c4c[nH]c5ccccc45)c3O)c[nH]c12 [Compound D-410644]
Human insulin receptor
  Study 2, cpm, phosphoryl incorporation by tyrosine kinase activities: 357.3 cpm
  % activation, tyrosine kinase activity compared to 10 nM insulin stimulation (Study 2): 21.9%

## O=C(O)c1sc(C(=O)c2c[nH]c3c(CCCCCO)cccc23)c(O)c1-c1c[nH]c2ccccc12 [Compound D-410640]
Human insulin receptor; normalized against 10 nM insulin, Fig. 4
  dose response of insulin receptor activation efficacy: levels off at 50 μM and tapers off by 100 μM

## O=C(O)c1oc(C(=O)c2c[nH]c3c(CCCCO)cccc23)c(O)c1-c1c[nH]c2ccccc12 [Compound D-410638]
Human insulin receptor
  % activation, tyrosine kinase activity compared to 10 nM insulin stimulation (Study 1): 31.3%

## Cn1cc(C2=C(O)C(=O)C(c3ccccc3)=C(O)C2=O)c2ccccc21 [compound 2, phenylindolyldihydroxyquinone, reference compound]
In vitro
  CC50 at 24 h: 66.5 µM
Insulin receptor; [4]
  EC50: 0.3 µM
Human insulin receptor; [5]
  EC50: 39 µM and 38.9 µM

## O=C(O)c1oc(C(=O)c2c[nH]c3c(CCCO)cccc23)c(O)c1-c1c[nH]c2ccccc12 [Compound D-410637]
Human insulin receptor
  % activation, tyrosine kinase activity compared to 10 nM insulin stimulation (Study 1): 18.9%

## C=CC(C)(C)c1[nH]c2ccccc2c1C1=C(O)C(=O)C(c2c[nH]c3c(CC=C(C)C)cccc23)=C(O)C1=O [DMAQ B1, Demethylasterriquinone B1]
EGF receptor (ErbB1) [1]
  activation potential on EGF receptor (ErbB1): minor activation potential
db/db mice
  effect on blood glucose: lower blood glucose in db/db mice
In vitro
  CC50 at 24 h: 2.3 µM
Insulin receptor; [4]
  EC50: 5 µM

## CCCCCc1cccc2c(C(=O)c3oc(C(=O)O)c(-c4c[nH]c5ccccc45)c3O)c[nH]c12 [Compound D-410641]
Human insulin receptor
  Study 2, cpm, phosphoryl incorporation by tyrosine kinase activities: 792.7 cpm
  % activation, tyrosine kinase activity compared to 10 nM insulin stimulation (Study 2): 48.6%

## diisoprenylindolylasterriquinone [Compound L-767827]
Insulin receptor
  insulin receptor tyrosine kinase activation potential: no insulin receptor tyrosine kinase activation potential

## O=C(O)CCCCc1cccc2c(C(=O)c3oc(C(=O)O)c(-c4c[nH]c5ccccc45)c3O)c[nH]c12 [Compound D-410643]
Human insulin receptor
  Study 2, cpm, phosphoryl incorporation by tyrosine kinase activities: 799 cpm
  % activation, tyrosine kinase activity compared to 10 nM insulin stimulation (Study 2): 48.9%

## O=C(O)c1oc(C(=O)c2c[nH]c3c(CCCCCO)cccc23)c(O)c1-c1c[nH]c2ccccc12 [Compound D-410639]
FGF receptor 3
  IC50: 26.5 µM
In vitro
  CC50 at 24 h: ~296 µM
CHO cells
  CC50: 296 µM
  fold less cytotoxic than DMAQ B1: 128 fold
Human insulin receptor; 100 μM, both studies
  insulin receptor activation efficacy relative to 10 nM insulin (range over Study 1 and 2): 72-89%
Human insulin receptor
  Study 1, cpm, phosphoryl incorporation by tyrosine kinase activities: 5590 cpm
  % activation, tyrosine kinase activity compared to 10 nM insulin stimulation (Study 1): 89.4%
  Study 2, cpm, phosphoryl incorporation by tyrosine kinase activities: 1181 cpm
  % activation, tyrosine kinase activity compared to 10 nM insulin stimulation (Study 2): 72.3%
Human insulin receptor; [5]
  EC50: 33 µM and 32.9 µM
[2]
  increase of IGF-1 receptor activity from the base line: 60-70%
EGF receptor (ErbB1) [3]
  IC50: 1.8 µM
